Patent US8232288B2, “Substituted benzimidazoles, benzothiazoles and benzoxazoles” (Gruenenthal GmbH, priority 2009, dated 2012)

Assays:
[1] = target: T1, B1R receptor of the rat (rB1R) (Rattus norvegicus, UniProt P97583); experiment: Functional investigation on the bradykinin receptor 1 (B1R), FLIPR Ca2+ assay, rB1R cells; format: cell-based
T1 construct: expressed in transfected cells; host or cells: CHO K1 cells
T1 sequence (P97583 1-337): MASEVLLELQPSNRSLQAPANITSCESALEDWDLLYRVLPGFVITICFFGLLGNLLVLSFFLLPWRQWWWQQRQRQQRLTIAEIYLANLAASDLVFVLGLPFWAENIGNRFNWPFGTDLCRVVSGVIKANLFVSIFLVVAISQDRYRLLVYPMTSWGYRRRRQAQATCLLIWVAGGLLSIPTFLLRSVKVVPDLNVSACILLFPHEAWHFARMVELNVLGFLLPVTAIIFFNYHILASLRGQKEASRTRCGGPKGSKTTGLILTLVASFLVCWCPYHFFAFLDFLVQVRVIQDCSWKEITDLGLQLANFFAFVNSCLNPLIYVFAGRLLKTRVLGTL
Experimental: (§1) The agonistic or antagonistic action of substances can be quantified on the bradykinin receptor 1 (B1R) of the human and rat species with ectopically expressing cell lines (CHO K1 cells) and with the aid of a Ca^2+-sensitive dyestuff (Fluo-4) in a fluorescent imaging plate reader (FLIPR). The figure in % activation is based on the Ca^2+ signal after addition of Lys-Des-Arg^9-bradykinin (0.5 nM) or Des-Arg^9-bradykinin (100 nM). Antagonists lead to a suppression of the Ca^2+ inflow after addition of the agonist. % inhibition compared with the maximum achievable inhibition is stated.
(§2) The agonistic or antagonistic action of substances can be determined on the bradykinin receptor 1 (B1R) of the human and rat species with the following assay. In accordance with this assay, the Ca^2+ inflow through the channel is quantified with the aid of a Ca^2+-sensitive dyestuff (type Fluo-4, Molecular Probes Europe BV, Leiden Holland) in a fluorescent imaging plate reader (FLIPR, Molecular Devices, Sunnyvale, USA).
(§3) Chinese hamster ovary cells (CHO K1 cells) transfected stably with the human B1R gene (hB1R cells) or the B1R gene of the rat (rB1R cells) are used. For functional studies, these cells are plated out on black 96-well plates with a clear base (BD Biosciences, Heidelberg, Germany or Greiner, Frickenhausen, Germany) in a density of 20,000-35,000 cells/well. The cells are left overnight at 37° C. and 5% CO2 in culture medium (hB1R cells: Nutrient Mixture Ham's F12, Gibco Invitrogen GmbH, Karlsruhe, Germany or DMEM, Sigma-Aldrich, Taufkirchen, Germany; rB1R cells: D-MEM/F12, Gibco Invitrogen GmbH, Karlsruhe, Germany) with 10 vol. % FBS (foetal bovine serum, Gibco Invitrogen GmbH, Karlsruhe, Germany or PAN Biotech GmbH, Aidenbach, Germany). On the following day, the cells are loaded for 60 min at 37° C. with 2.13 μM Fluo-4 (Molecular Probes Europe BV, Leiden Holland) in HBSS buffer (Hank's buffered saline solution, Gibco Invitrogen GmbH, Karlsruhe, Germany) with 2.5 mM probenecid (Sigma-Aldrich, Taufkirchen, Germany) and 10 mM HEPES (Sigma-Aldrich, Taufkirchen, Germany). The plates are then washed 2× with HBSS buffer, and HBSS buffer which additionally contains 0.1% BSA (bovine serum albumin; Sigma-Aldrich, Taufkirchen, Germany), 5.6 mM glucose and 0.05% gelatine (Merck KGaA, Darmstadt, Germany) is added. After a further incubation of 20 minutes at room temperature, the plates are inserted into the FLIPR for the Ca^2+ measurement.
(§4) Alternatively, the plates are washed with buffer A (15 mM HEPES, 80 mM NaCl, 5 mM KCl, 1.2 mM CaCl2, 0.7 mM MgSO4, 2 g/l glucose, 2.5 mM probenecid), buffer A is added and the plates are loaded with 2.5 μM Fluo-4 and 0.025% Pluronic F127 (Sigma-Aldrich, Taufkirchen, Germany). Thereafter, the cells are washed 2× with buffer A and incubated for 30 minutes at room temperature with buffer A, which additionally contains 0.05% BSA and 0.05% gelatine, and thereafter inserted into the FLIPR for the Ca^2+ measurement.
(§5) The Ca^2+-dependent fluorescence is measured here before and after addition of substances (λex=488 nm, λem=540 nm). Quantification is by measurement of the highest fluorescence intensity (FC, fluorescence counts) over time.
(§6) The FLIPR protocol consists of 2 additions of substance. Test substances (10 μM) are first pipetted on to the cells and the Ca^2+ inflow is compared with the control (hB1R: Lys-Des-Arg^9-bradykinin>=50 nM; rB1R: Des-Arg^9-bradykinin 10 μM). This gives the result in % activation based on the Ca^2+ signal after addition of Lys-Des-Arg^9-bradykinin (>=50 nM) or Des-Arg^9-bradykinin (10 μM). After incubation for 10-20 minutes, Lys-Des-Arg^9-bradykinin (hB1R) or Des-Arg^9-bradykinin (rB1R) in the concentration of the EC80 is applied and the inflow of Ca^2+ is likewise determined. Antagonists lead to a suppression of the Ca^2+ inflow. % inhibition compared with the maximum achievable inhibition is calculated.
(§7) In order to determine the IC50 value, the substances are added in various concentrations. […]

[2] = target: T2, human B1R receptor (hB1R) (Homo sapiens, UniProt P46663); experiment: Functional investigation on the bradykinin receptor 1 (B1R), FLIPR Ca2+ assay, hB1R cells; format: cell-based
T2 construct: expressed in transfected cells; host or cells: CHO K1 cells
T2 sequence (P46663 1-353): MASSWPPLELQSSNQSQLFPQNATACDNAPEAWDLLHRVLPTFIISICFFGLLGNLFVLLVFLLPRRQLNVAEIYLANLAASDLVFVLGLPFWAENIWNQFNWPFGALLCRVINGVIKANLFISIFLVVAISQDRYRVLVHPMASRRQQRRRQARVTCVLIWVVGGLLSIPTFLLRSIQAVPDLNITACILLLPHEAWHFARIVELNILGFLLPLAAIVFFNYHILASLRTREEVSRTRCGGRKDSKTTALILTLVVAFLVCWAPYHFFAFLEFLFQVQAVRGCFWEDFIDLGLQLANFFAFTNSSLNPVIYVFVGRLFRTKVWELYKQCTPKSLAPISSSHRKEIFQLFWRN
Experimental: as §1, §2, §3, §4, §5, §6, §7

Row | Structure (SMILES) | inhibition at 10 µM [1] [%] | inhibition at 10 µM [2] [%]
1 | COc1cc(C)c(S(=O)(=O)N(C)Cc2nc3ccc(F)c(C(=O)N4CCC5(CC4)CCN(c4ccncc4)CC5)c3[nH]2)c(C)c1 [I_13, N-[[6-fluoro-7-(9-pyridin-4-yl-3,9-diazaspiro[5.5]undecane-3-carbonyl)-1H-benzoimidazol-2-yl]-methyl]-4-methoxy-N,2,6-trimethyl-benzenesulfonic acid amide] | 93 | 98
2 | Cc1cc(S(=O)(=O)N(C)Cc2nc3cccc(C(=O)N4CCC5(CC4)CCN(c4ccncc4)C5)c3[nH]2)c(C)cc1Cl [I_CC-10, 4-chloro-N,2,5-trimethyl-N-[[7-(3-pyridin-4-yl-3,8-diazaspiro[4.5]decane-8-carbonyl)-1H-benzoimidazol-2-yl]-methyl]-benzenesulfonic acid amide] | 88 | 94
3 | COc1cc(C)c(S(=O)(=O)N(Cc2nc3cccc(C(=O)N4CCC5(CC4)CCN(c4ccncc4)CC5)c3[nH]2)C2CC2)c(C)c1 [I_14, N-cyclopropyl-4-methoxy-2,6-dimethyl-N-[[7-(9-pyridin-4-yl-3,9-diazaspiro[5.5]undecane-3-carbonyl)-1H-benzoimidazol-2-yl]-methyl]-benzenesulfonic acid amide] | 95 | 99
4 | COc1cc(C)c(S(=O)(=O)N(C)Cc2nc3c(C(=O)N4CCC5(CC4)CCN(c4ccncc4)C5)cccc3s2)c(C)c1 [I_CC-20, 4-methoxy-N,2,6-trimethyl-N-[[4-(3-pyridin-4-yl-3,8-diazaspiro[4.5]decane-8-carbonyl)-benzothiazol-2-yl]-methyl]-benzenesulfonic acid amide] | 100 | 93
5 | Cc1ccc(Cl)c(S(=O)(=O)N(C)Cc2nc3cccc(C(=O)N4CCC5(CC4)CCN(c4ccncc4)CC5)c3[nH]2)c1Cl [I_17, 2,6-dichloro-N,3-dimethyl-N-[[7-(9-pyridin-4-yl-3,9-diazaspiro[5.5]undecane-3-carbonyl)-1H-benzoimidazol-2-yl]-methyl]-benzenesulfonic acid amide] | 24 | 95
6 | COc1cc(C)c(S(=O)(=O)N(C)C2(c3nc4cccc(C(=O)N5CCC6(CC5)CCN(c5ccncc5)CC6)c4[nH]3)CC2)c(C)c1 [I_12, 4-methoxy-N,2,6-trimethyl-N-[1-[7-(9-pyridin-4-yl-3,9-diazaspiro[5.5]undecane-3-carbonyl)-1H-benzoimidazol-2-yl]-cyclopropyl]-benzenesulfonic acid amide] | 92 | 98
7 | COc1cc(C)c(S(=O)(=O)N(C)Cc2nc3cccc(C(=O)N4CCC5(CC4)CCN(c4ccncc4)C5)c3[nH]2)c(C)c1 [I_CC-06, 4-methoxy-N,2,6-trimethyl-N-[[7-(3-pyridin-4-yl-3,8-diazaspiro[4.5]decane-8-carbonyl)-1H-benzoimidazol-2-yl]-methyl]-benzenesulfonic acid amide] | 102 | 100
8 | CN(Cc1nc2cccc(C(=O)N3CCC4(CC3)CCN(c3ccncc3)C4)c2[nH]1)C(=O)c1ccccc1Cl [I_CC-08, 2-chloro-N-methyl-N-[[7-(3-pyridin-4-yl-3,8-diazaspiro[4.5]decane-8-carbonyl)-1H-benzoimidazol-2-yl]-methyl]-benzamide] | 64 | 26
9 | CN(Cc1nc2ccc(C(=O)N3CCC4(CC3)CCN(c3ccncc3)CC4)cc2[nH]1)S(=O)(=O)c1ccccc1C(F)(F)F [I_24, N-methyl-N-[[6-(9-pyridin-4-yl-3,9-diazaspiro[5.5]undecane-3-carbonyl)-1H-benzoimidazol-2-yl]-methyl]-2-(trifluoromethyl)-benzenesulfonic acid amide] | 102 | 100

Further lines, results first:

Row | inhibition at 10 µM [1] [%] | inhibition at 10 µM [2] [%] | Structure (SMILES)
10 | 49 | 71 | O=C1c2c(Cl)cccc2CN1Cc1nc2cccc(C(=O)N3CCC4(CC3)CCN(c3ccncc3)C4)c2[nH]1 [I_CC-13, 7-chloro-2-[[7-(3-pyridin-4-yl-3,8-diazaspiro[4.5]decane-8-carbonyl)-1H-benzoimidazol-2-yl]-methyl]-2,3-dihydro-isoindol-1-one]
11 | 95 | 49 | COc1cc(C)c(S(=O)(=O)N(C)C(C)c2nc3cccc(C(=O)N4CCC5(CCN(Cc6ccc(F)cc6Cl)CC5)CC4)c3[nH]2)c(C)c1 (stereo not shown) [I_CC-39, N-[1-[7-[9-[(2-Chloro-4-fluoro-phenyl)-methyl]-3,9-diazaspiro[5.5]undecane-3-carbonyl]-1H-benzoimidazol-2-yl]-ethyl]-4-methoxy-N,2,6-trimethyl-benzenesulfonic acid amide]
12 | 99 | 71 | COc1cc(C)c(S(=O)(=O)N(C)C(C)c2nc3cccc(C(=O)N4CCC5(CCN(Cc6ccc(F)cc6F)CC5)CC4)c3[nH]2)c(C)c1 (stereo not shown) [I_CC-32, N-[1-[7-[9-[(2,4-Difluoro-phenyl)-methyl]-3,9-diazaspiro[5.5]undecane-3-carbonyl]-1H-benzoimidazol-2-yl]-ethyl]-4-methoxy-N,2,6-trimethyl-benzenesulfonic acid amide]
13 | 85 | 96 | COc1cc(C)c(S(=O)(=O)N(C)C(C)c2nc3cccc(C(=O)N4CCC5(CCN(Cc6cccnc6)CC5)CC4)c3[nH]2)c(C)c1 (stereo not shown) [I_CC-28, 4-Methoxy-N,2,6-trimethyl-N-[1-[7-[9-(pyridin-3-yl-methyl)-3,9-diazaspiro[5.5]undecane-3-carbonyl]-1H-benzoimidazol-2-yl]-ethyl]-benzenesulfonic acid amide]
14 | 90 | 58 | COc1cc(C)c(S(=O)(=O)N(C)C(C)c2nc3cccc(C(=O)N4CCC5(CCN(C(=O)c6cnccn6)CC5)CC4)c3[nH]2)c(C)c1 (stereo not shown) [I_CC-47, 4-Methoxy-N,2,6-trimethyl-N-[1-[7-[9-(pyrazine-2-carbonyl)-3,9-diazaspiro[5.5]undecane-3-carbonyl]-1H-benzoimidazol-2-yl]-ethyl]-benzenesulfonic acid amide]
